# Results published in the NIST ThermoML archive (doi:10.1021/acs.jced.6b00460).
# ± gives the expanded uncertainty stated by the source.
# Conditions: 101.33 kPa, Liquid; for speed of sound: Sing-around technique in a fixed-path interferometer; for mass density: Vibrating tube method
Compound,speed of sound (308.15 K) [m/s],mass density (308.15 K) [kg/m3],speed of sound (318.15 K) [m/s],mass density (318.15 K) [kg/m3]
CCCCCC[n+]1ccc(C)cc1.[Br-] [1-hexyl-4-methylpyridinium bromide],1589.8 ± 2.7,1214.46 ± 2.3,1558.7 ± 2.7,1207.88 ± 2.3
CCCCCCCC[n+]1ccccc1.[Br-] [1-octylpyridinium bromide],1507.1 ± 2.6,1168.14 ± 2.3,1478.3 ± 2.6,1161.81 ± 2.3
CCCCCC[n+]1ccccc1.[Br-] [1-hexylpyridinium bromide],1592.5 ± 2.7,1235.72 ± 2.4,1557.2 ± 2.7,1229.23 ± 2.3

# The next lines start with the values.
speed of sound (308.15 K) [m/s],mass density (308.15 K) [kg/m3],speed of sound (318.15 K) [m/s],mass density (318.15 K) [kg/m3],Compound
1445.5 ± 2.6,1107.79 ± 2.2,1411.7 ± 2.6,1102.01 ± 2.2,CCCCCCCC[n+]1ccc(C)cc1.[Cl-] [4-methyl-1-octylpyridinium chloride]
1482.6 ± 2.6,1128.78 ± 2.2,1448.6 ± 2.6,1123.06 ± 2.2,CCCCCCCC[n+]1ccccc1.[Cl-] [N-octylpyridinium chloride]
1570.7 ± 2.7,1146.65 ± 2.3,1549.2 ± 2.7,1142.77 ± 2.3,CCCCCC[n+]1ccccc1.[Cl-] [1-hexylpyridinium chloride]
